Test results taken from paper PMC12154458, “High-Throughput Screens of Repurposing Hub and DOS Chemical Libraries Reveal Compounds with Novel and Potent Inhibitory Activity Against the Essential Non-Neuronal Acetylcholinesterase of Schistosoma mansoni (SmTAChE)” (International Journal of Molecular Sciences, 2025).
Where two headings read alike, the source gives them in different places.

How the values were obtained:
[1] = target: recombinant human acetylcholinesterase, rHsAChE (Homo sapiens, UniProt P22303); test: biochemical
rSmTAChE [2] = target: T1, rSmTAChE (Schistosoma mansoni, UniProt A0A3Q0KMM5); test: biochemical
rSmTAChE [3] = target: T1, rSmTAChE; format: biochemical; conditions: for IC50: read-out: qAC50 (IC50), rSmTAChE
[4] = read-out: qAC50 (IC50), rHsAChE
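Wherever Inhibition (%) (Average) is given: mostly 20 µM final but a few compounds at 5 or 10 µM.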
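Wherever Inhibition (%) Replicate A is given: mostly 20 µM final but a few compounds at 5 or 10 µM.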
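Wherever Inhibition (%) Replicate B is given: mostly 20 µM final but a few compounds at 5 or 10 µM.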

T1 sequence (A0A3Q0KMM5 27-661 limits assumed): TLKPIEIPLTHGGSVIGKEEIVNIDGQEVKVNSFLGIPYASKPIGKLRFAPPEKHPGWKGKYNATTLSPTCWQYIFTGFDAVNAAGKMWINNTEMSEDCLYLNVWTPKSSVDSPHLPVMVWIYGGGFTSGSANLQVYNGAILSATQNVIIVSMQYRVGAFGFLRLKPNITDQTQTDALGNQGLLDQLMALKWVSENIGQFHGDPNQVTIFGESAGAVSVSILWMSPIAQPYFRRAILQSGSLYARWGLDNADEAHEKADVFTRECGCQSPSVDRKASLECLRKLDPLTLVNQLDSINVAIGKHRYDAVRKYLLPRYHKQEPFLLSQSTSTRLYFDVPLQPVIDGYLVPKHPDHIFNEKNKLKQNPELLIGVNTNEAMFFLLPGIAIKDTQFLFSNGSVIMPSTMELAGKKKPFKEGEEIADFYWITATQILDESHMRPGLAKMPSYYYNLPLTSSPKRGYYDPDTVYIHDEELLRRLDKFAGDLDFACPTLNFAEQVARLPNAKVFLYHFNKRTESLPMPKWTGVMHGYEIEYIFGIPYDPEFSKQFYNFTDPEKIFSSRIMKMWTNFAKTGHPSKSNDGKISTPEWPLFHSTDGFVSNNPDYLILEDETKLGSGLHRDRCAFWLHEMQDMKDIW
Sequence of recombinant human acetylcholinesterase, rHsAChE (P22303 32-614): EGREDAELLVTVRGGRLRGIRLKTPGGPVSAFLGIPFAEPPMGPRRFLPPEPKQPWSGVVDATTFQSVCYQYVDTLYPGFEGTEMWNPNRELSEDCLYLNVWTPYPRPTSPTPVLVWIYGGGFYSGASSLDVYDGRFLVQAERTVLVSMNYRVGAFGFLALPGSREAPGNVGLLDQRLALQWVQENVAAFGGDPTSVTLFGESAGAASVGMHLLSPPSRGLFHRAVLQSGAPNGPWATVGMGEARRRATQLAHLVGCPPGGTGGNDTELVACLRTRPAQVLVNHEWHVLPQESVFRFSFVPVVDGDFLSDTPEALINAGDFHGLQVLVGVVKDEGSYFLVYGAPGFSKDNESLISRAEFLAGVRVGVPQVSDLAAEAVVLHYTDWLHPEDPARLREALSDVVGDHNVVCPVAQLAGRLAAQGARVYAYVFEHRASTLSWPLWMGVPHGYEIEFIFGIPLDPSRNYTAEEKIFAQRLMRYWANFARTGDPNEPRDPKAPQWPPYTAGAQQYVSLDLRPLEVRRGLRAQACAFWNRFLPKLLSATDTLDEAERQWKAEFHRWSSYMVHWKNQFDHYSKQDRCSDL

| Structure (SMILES) | Data Mode (curve class), rHsAChE [1] | Inhibition (%) (Average) (rSmTAChE [2]) | Inhibition (%) Replicate A (rSmTAChE [2]) | Inhibition (%) Replicate B (rSmTAChE [2]) | Data Mode (curve class), rSmTAChE (rSmTAChE [3]) | IC50 (rSmTAChE [3]) | IC50 [1, 4] | rHsAChE Data Mode [1] | rSmTAChE Data Mode (rSmTAChE [3]) | IC50 ([1]; Table 2, DOS-A library, Inactive = inactive at the maximum tested concentration (40 µM), read-out: IC50 (µM) rHsAChE) | rHsAChE Data Mode ([1]; dose response curve classification, Table S4, DOS-A) | inhibition at 20 µM (rSmTAChE [2]; read-out: rSmTAChE HTS Inhibition (Ave, %)) | SI (Hs/Sm) (rSmTAChE [3]) |
| --- | --- | --- | --- | --- | --- | --- | --- | --- | --- | --- | --- | --- | --- |
| O=C(Cc1cccc(OC(F)(F)F)c1)Nc1ccc(CCCCc2nnc(NC(=O)Cc3ccccn3)s2)nn1 [BRD-K58070273-001-03-3] | inactive | 71.54% | 74.28% | 68.80% | decreasing (weakly active) | > 38 µM |  |  |  |  |  |  |  |
| CCCCCCCCCCCCc1ccc(S(=O)(=O)Nc2nncs2)cc1 [BRD-K59745944-001-04-6] | decreasing | 78.08% | 80.43% | 75.72% | decreasing | 1.86 µM | 1.16 µM |  |  |  |  |  |  |
| C[C@@H]1C[C@H]2[C@@H]3CCC4=CC(=O)C=C[C@]4(C)[C@@]3(Cl)[C@@H](O)C[C@]2(C)[C@@]1(OC(=O)c1ccco1)C(=O)CCl [BRD-K60640630-001-11-0] | inactive | 71.97% | 69.48% | 74.46% | decreasing (weakly active) | > 38 µM |  |  |  |  |  |  |  |
| CCCN1C[C@H](CSC)C[C@@H]2c3cccc4[nH]cc(c34)C[C@H]21 [BRD-K60770992-066-25-0] | decreasing | 71.65% | 73.49% | 69.82% | decreasing (weakly active) | > 38 µM | 29.7 µM |  |  |  |  |  |  |
| COc1cccc(C#Cc2ccc([C@H]3[C@@H](C#N)N(C(=O)c4ccccn4)[C@@H]3CO)cc2)c1 [BRD-K61082257-001-01-7] |  | 66.17% | 65.93% | 66.40% |  |  |  | inactive | decreasing (weakly active) |  |  |  |  |
| COc1ccc(NC(=O)Nc2ccc3c(c2)[C@@H]2C[C@H](CC(=O)NCc4ccccn4)O[C@@H](CO)[C@@H]2O3)cc1 [BRD-K62846431-001-01-3] |  | 77.92% | 78.02% | 77.82% |  |  |  | decreasing (weakly active) | decreasing (weakly active) |  |  |  |  |
| COc1cccc(C#Cc2ccc([C@H]3[C@@H](CO)N(C(=O)c4ccccn4)[C@H]3C#N)cc2)c1 [BRD-K64190282-004-01-8, (2R,3R,4S)-4-(hydroxymethyl)-3-[4-[2-(3-methoxyphenyl)ethynyl]phenyl]-1-[oxo(2-pyridinyl)methyl]-2-azetidinecarbonitrile] |  |  |  |  |  |  |  |  | decreasing | 33.7 µM | decreasing | 92.2% | 2.59 |
| O=C(C[C@H]1C[C@H]2c3cc(NC(=O)NC4CCCC4)ccc3O[C@H]2[C@@H](CO)O1)NCc1ccccc1F [BRD-K64460391-001-01-9] |  | 88.85% | 89.69% | 88.02% |  |  |  | inactive | decreasing (weakly active) |  |  |  |  |
| O=C(Nc1ccccc1Br)N[C@@H]1CCN(c2ccc(C(F)(F)F)cn2)C1 [BRD-K65991129-001-02-9] | inactive | 65.52% | 67.06% | 63.99% | inactive |  |  |  |  |  |  |  |  |
| COc1cccc(C#Cc2ccc([C@@H]3[C@@H](C#N)N(C(=O)c4ccccn4)[C@@H]3CO)cc2)c1 [BRD-K66084396-004-02-2] |  | 72.85% | 73.10% | 72.60% |  |  |  | inactive | inactive |  |  |  |  |
| N#C[C@H]1[C@H](c2ccc(C3=CCCCC3)cc2)[C@@H](CO)N1S(=O)(=O)c1ccccc1 [BRD-K66729212-001-01-2] |  | 61.17% | 61.05% | 61.28% |  |  |  | inactive | inactive |  |  |  |  |
| CCCCC(=O)O[C@H]1CC[C@H]2[C@@H]3CCc4cc(O)ccc4[C@H]3CC[C@]12C [BRD-K66766661-001-19-2] | decreasing | 77.12% | 78.67% | 75.58% | inactive |  | 29.4 µM |  |  |  |  |  |  |
| COc1ccc(C#Cc2ccc3c(c2)O[C@@H](CN(C)S(=O)(=O)c2ccccc2F)[C@@H](C)CN([C@H](C)CO)S3(=O)=O)cc1 [BRD-K67027685-001-01-8] |  | 71.37% | 69.23% | 73.51% |  |  |  | inactive | inactive |  |  |  |  |
